Reference: US11505548B2, “Heterocyclic compounds and their use for treatment of helminthic infections and diseases” (Celgene Corporation, priority 2019, dated 2022)
Where two headings read alike, the source gives them in different places.

Tested on: Onchocerca gutturosa Adult Male Worms
Experiment: Onchocerciasis in vitro screening model, worm motility score
Format: cell-based
Settings: read-out: O. gutturosa activity level (IC50 or MED)
[1] = Onchocerca gutturosa, Table 1 O. gutturosa, levels A/B/C, motility or MTT readout not specified
[2] = in vitro, Onchocerca gutturosa adult male worms, class A/B/C

Row | SMILES | IC50 [1] | IC50 [2]
1 | Cc1cccnc1Nc1nc(-c2ccc(OC3CC3)cn2)ns1 [Compound 38, 3-(5-cyclo-propoxypyridin-2-yl)-N-(3-methyl-pyridin-2-yl)-1,2,4-thiadiazol-5-amine] | < 200 nM | –
2 | CC(=O)N(C)c1cccnc1Nc1nc(-c2ccc(OC3CCN(C(C)C)CC3(F)F)cn2)ns1 (stereo not drawn) [Compound 203, N-(2-(3-(5-(3,3-difluoro-1-isopropyl-piperidin-4-yloxy)pyridin-2-yl)-1,2,4-thiadiazol-5-ylamino)pyridin-3-yl)-N-methylacetamide] | – | 500 to 5000 nM
3 | CC(=O)N1CCc2cc(-c3nsc(Nc4ncccc4C(F)(F)F)n3)ncc21 [Compound 267, 1-(5-(5-(3-(trifluoromethyl)pyridin-2-ylamino)-1,2,4-thiadiazol-3-yl)-2,3-dihydro-1H-pyrrolo[2,3-c]pyridin-1-yl)ethanone] | – | 500 to 5000 nM
4 | CC(C)COc1cnc(-c2nsc(Nc3ncccc3N(C)C)n2)cn1 [Compound 150, N2-(3-(5-isobutoxy-pyrazin-2-yl)-1,2,4-thiadiazol-5-yl)-N3,N3-dimethyl-pyridine-2,3-diamine] | 500 to 5000 nM | –
5 | CC(C)Oc1cnc(-c2nsc(Nc3ncccc3C(C)C)n2)cc1C#N [Compound 201, 5-isopropoxy-2-(5-(3-isopropyl-pyridin-2-ylamino)-1,2,4-thiadiazol-3-yl)isonicotino-nitrile] | – | 500 to 5000 nM
6 | Cc1cnc(Nc2nc(-c3cc(C(=O)N(C)C)c(OC(C)C)cn3)ns2)c(C(F)(F)F)c1 [Compound 254, 5-isopropoxy-N,N-dimethyl-2-(5-(5-methyl-3-(trifluoromethyl)pyridin-2-ylamino)-1,2,4-thiadiazol-3-yl)isonico-tinamide] | – | 500 to 5000 nM
7 | CC(=O)N1CCC(Oc2ccc(-c3nsc(Nc4ncccc4C)n3)nc2)CC1 [Compound 266, 1-(4-(6-(5-(3-methyl-pyridin-2-ylamino)-1,2,4-thiadiazol-3-yl)pyridin-3-yloxy)piperidin-1-yl)ethanone] | – | 500 to 5000 nM
8 | CC(=O)N(C)c1cc(C(F)(F)F)cnc1Nc1nc(-c2cc3c(cn2)CCN3C(C)C)ns1 [Compound 304, N-(2-(3-(1-isopropyl-2,3-dihydro-1H-pyrrolo[3,2-c]pyridin-6-yl)-1,2,4-thiadiazol-5-ylamino)-5-(trifluoromethyl)pyridin-3-yl)-N-methylacetamide] | – | < 200 nM
9 | COc1ccnc(-c2nsc(Nc3ncc(C(F)(F)F)cc3N(C)C(C)=O)n2)c1 [Compound 318, N-(2-(3-(4-methoxypyridin-2-yl)-1,2,4-thiadiazol-5-ylamino)-5-(trifluoromethyl)pyridin-3-yl)-N-methylacetamide] | – | < 200 nM
10 | COc1ccc(-c2nnc(Nc3cc(OC(C)C)ccn3)[nH]2)nc1 [Compound 257, 4-isopropoxy-N-(5-(5-methoxy-pyridin-2-yl)-4H-1,2,4-triazol-3-yl)pyridin-2-amine] | – | 500 to 5000 nM
11 | CC(=O)N(C)c1cnc(Nc2nc(-c3cc(OC(C)C)ccn3)ns2)c(C)c1 [Compound 288, N-(6-(3-(4-isopropoxypyridin-2-yl)-1,2,4-thiadiazol-5-ylamino)-5-methylpyridin-3-yl)-N-methylacetamide] | – | 500 to 5000 nM
12 | Cc1cnc(Nc2nc(-c3cc(OC4COC4)ccn3)ns2)c(C(F)(F)F)c1 [Compound 275, N-(5-methyl-3-(trifluoromethyl)pyridin-2-yl)-3-(4-(oxetan-3-yloxy)pyridin-2-yl)-1,2,4-thiadiazol-5-amine] | – | 500 to 5000 nM
13 | COc1cc(C(C)C)cnc1Nc1nc(-c2ccc(OC(C)C)cn2)ns1 [Compound 166, 3-(5-isopropoxy-pyridin-2-yl)-N-(5-isopropyl-3-methoxypyridin-2-yl)-1,2,4-thiadiazol-5-amine] | < 200 nM | –
14 | CC(C)Oc1ccc(-c2nsc(Nc3ncccc3N3CCCC3)n2)nc1 [Compound 116, 3-(5-isopropoxy-pyridin-2-yl)-N-(3-(pyrrolidin-1-yl)pyridin-2-yl)-1,2,4-thiadiazol-5-amine] | < 200 nM | –
15 | CC(C)Oc1cnc(-c2nsc(Nc3ncccc3C(F)(F)F)n2)cc1C(N)=O [Compound 220, 5-isopropoxy-2-(5-(3-(trifluoromethyl)pyridin-2-ylamino)-1,2,4-thiadiazol-3-yl)isonico-tinamide] | – | 200 to 500 nM
16 | COc1ccc(-c2nsc(Nc3ccc(C4CCCC4)cn3)n2)nc1 [Compound 68, N-(5-cyclopentyl-pyridin-2-yl)-3-(5-methoxypyridin-2-yl)-1,2,4-thiadiazol-5-amine] | 200 to 500 nM | –
17 | Cc1cccnc1-c1nnc(Nc2ccccn2)[nH]1 [Compound 41, N-(5-(3-methyl-pyridin-2-yl)-4H-1,2,4-triazol-3-yl)pyridin-2-amine] | < 200 nM | –
18 | CC(C)Oc1cnc(-c2nsc(Nc3ncc(C(C)C)cc3C(F)(F)F)n2)cc1C(=O)N(C)C [Compound 219, 5-isopropoxy-2-(5-(5-isopropyl-3-(trifluoromethyl)pyridin-2-ylamino)-1,2,4-thiadiazol-3-yl)-N,N-dimethyliso-nicotinamide] | – | 200 to 500 nM
19 | CN(C)c1cccnc1Nc1nc(-c2cc(OC3CC3)c(C(F)(F)F)cn2)ns1 [Compound 153, N2-(3-(4-cyclo-propoxy-5-(trifluoromethyl)pyridin-2-yl)-1,2,4-thiadiazol-5-yl)-N3,N3-dimethyl-pyridine-2,3-diamine] | 500 to 5000 nM | –
20 | CC(=O)N(C)c1cc(C(F)(F)F)cnc1Nc1nc(-c2cc(C(F)(F)F)c(OC(C)C)cn2)ns1 [Compound 268, N-(2-(3-(5-isopropoxy-4-(trifluoromethyl)pyridin-2-yl)-1,2,4-thiadiazol-5-ylamino)-5-(trifluoromethyl)pyridin-3-yl)-N-methylacetamide] | – | 500 to 5000 nM
21 | Cc1cccnc1Nc1nc(-c2ccc(OC(C)C)cn2)no1 [Compound 20, 3-(5-isopropoxy-pyridin-2-yl)-N-(3-methyl-pyridin-2-yl)-1,2,4-oxadiazol-5-amine] | < 200 nM | –
22 | Cc1cccnc1Nc1nc(-c2ccc(OC3CCN(C4CCCC4)CC3)cn2)ns1 [Compound 72, 3-(5-(1-cyclo-pentylpiperidin-4-yloxy)pyridin-2-yl)-N-(3-methylpyridin-2-yl)-1,2,4-thiadiazol-5-amine] | 200 to 500 nM | –
23 | Cc1cccnc1Nc1nnc(-c2ccc(OC(C)C)cn2)s1 [Compound 64, 5-(5-isopropoxy-pyridin-2-yl)-N-(3-methyl-pyridin-2-yl)-1,3,4-thiadiazol-2-amine] | 500 to 5000 nM | –
24 | COc1ccc(Nc2nc(-c3ccccn3)ns2)nc1 [Cmpd 2, N-(5-methoxy-pyridin-2-yl)-3-(pyridin-2-yl)-1,2,4-thiadiazol-5-amine] | 500 to 5000 nM | –
25 | CN(C)C(=O)c1cc(C(F)(F)F)cnc1Nc1nc(-c2cc3c(cn2)N(C)C(=O)C3(C)C)ns1 [Compound 292, N,N-dimethyl-5-(trifluoromethyl)-2-(3-(1,3,3-trimethyl-2-oxo-2,3-dihydro-1H-pyrrolo[2,3-c]pyridin-5-yl)-1,2,4-thiadiazol-5-ylamino) nicotinamide] | – | 500 to 5000 nM
26 | CC(C)c1cccnc1Nc1nc(-c2ccc(O[C@@H]3CCN(C4CC4)C[C@H]3F)cn2)ns1 [Compound 90, 3-(5-((3R,4R)-1-cyclopropyl-3-fluoro-piperidin-4-yloxy)pyridin-2-yl)-N-(3-isopropylpyridin-2-yl)-1,2,4-thiadiazol-5-amine] | < 200 nM | –
27 | Cc1cccnc1-c1nsc(Nc2ccc(N3CCCC3)cn2)n1 [Compound 51, 3-(3-methyl-pyridin-2-yl)-N-(5-(pyrrolidin-1-yl)pyridin-2-yl)-1,2,4-thiadiazol-5-amine] | < 200 nM | –
